From patent US12479847B2 (DANA-FARBER CANCER INSTITUTE, INC., priority 2019, dated 2025) come the findings set out here.

What all share (assay): KINOMEscan (ScanMAX) kinase profiling
Assay type in all cases: binding

In assay [1] the target is T1, panel of 468 kinases (Homo sapiens, UniProt O00750).
T1 construct: purchased KINOMEscan (ScanMAX) service
As to conditions: PIK3C2B; 1 μM; read-out: % control.

In assay [2] the target is T2, panel of 468 kinases (Homo sapiens, UniProt P29320).
T2 construct: purchased KINOMEscan (ScanMAX) service
T2 sequence (P29320 21-983): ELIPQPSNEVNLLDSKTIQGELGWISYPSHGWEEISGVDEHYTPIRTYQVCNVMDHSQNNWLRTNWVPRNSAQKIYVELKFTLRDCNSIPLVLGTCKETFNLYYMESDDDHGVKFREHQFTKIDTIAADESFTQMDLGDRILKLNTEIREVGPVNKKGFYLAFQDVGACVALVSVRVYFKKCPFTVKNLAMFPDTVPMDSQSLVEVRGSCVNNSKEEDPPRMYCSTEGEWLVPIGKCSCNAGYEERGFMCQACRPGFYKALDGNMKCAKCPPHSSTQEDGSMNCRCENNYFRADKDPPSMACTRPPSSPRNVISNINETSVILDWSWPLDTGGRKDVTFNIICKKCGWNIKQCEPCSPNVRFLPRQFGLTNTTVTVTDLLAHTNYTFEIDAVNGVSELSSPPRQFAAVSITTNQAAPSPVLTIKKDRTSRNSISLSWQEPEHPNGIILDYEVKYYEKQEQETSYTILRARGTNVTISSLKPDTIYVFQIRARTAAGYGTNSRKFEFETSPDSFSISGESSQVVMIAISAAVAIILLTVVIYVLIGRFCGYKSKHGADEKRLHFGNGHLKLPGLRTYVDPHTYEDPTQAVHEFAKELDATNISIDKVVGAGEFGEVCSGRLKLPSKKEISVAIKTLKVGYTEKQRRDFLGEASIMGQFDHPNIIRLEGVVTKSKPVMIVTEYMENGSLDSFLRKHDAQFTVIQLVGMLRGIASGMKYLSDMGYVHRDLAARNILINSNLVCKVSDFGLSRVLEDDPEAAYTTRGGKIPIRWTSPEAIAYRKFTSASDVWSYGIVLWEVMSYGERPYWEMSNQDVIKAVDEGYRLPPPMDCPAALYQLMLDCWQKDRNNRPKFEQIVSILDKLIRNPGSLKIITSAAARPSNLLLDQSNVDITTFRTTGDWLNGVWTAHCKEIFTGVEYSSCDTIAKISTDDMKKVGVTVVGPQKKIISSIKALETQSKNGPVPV
As to conditions: EPHA3; 1 μM; read-out: % control.

For assay [3], the target named is T3, panel of 468 kinases (Homo sapiens, UniProt P51813).
T3 construct: purchased KINOMEscan (ScanMAX) service
T3 sequence (P51813 1-675): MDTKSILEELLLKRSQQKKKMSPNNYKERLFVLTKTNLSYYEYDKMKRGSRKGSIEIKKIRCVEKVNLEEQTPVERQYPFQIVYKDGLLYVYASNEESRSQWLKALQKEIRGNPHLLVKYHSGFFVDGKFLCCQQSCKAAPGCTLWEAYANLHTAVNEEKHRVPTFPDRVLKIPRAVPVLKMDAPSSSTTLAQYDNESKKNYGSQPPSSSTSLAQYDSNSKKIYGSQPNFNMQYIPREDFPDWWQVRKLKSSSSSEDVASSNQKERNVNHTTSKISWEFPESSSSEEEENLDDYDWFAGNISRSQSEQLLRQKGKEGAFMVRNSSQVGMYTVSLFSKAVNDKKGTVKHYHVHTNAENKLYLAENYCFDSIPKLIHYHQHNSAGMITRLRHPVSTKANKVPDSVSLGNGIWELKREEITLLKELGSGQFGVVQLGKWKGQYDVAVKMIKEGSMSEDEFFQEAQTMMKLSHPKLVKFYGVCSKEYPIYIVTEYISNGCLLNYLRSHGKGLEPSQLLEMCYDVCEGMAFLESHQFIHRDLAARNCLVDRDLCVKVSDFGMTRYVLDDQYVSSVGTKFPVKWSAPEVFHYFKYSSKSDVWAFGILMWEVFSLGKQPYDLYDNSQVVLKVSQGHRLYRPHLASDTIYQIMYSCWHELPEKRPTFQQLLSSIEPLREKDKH
As to conditions: BMX; 1 μM; read-out: % control.

Assay [4] has as its target T4, panel of 468 kinases (Homo sapiens, UniProt P78368).
T4 construct: purchased KINOMEscan (ScanMAX) service
Particulars: CSNK1G2; 1 μM; read-out: % control.

The target of assay [5] is T5, panel of 468 kinases (Homo sapiens, UniProt Q16288).
T5 construct: purchased KINOMEscan (ScanMAX) service
T5 sequence (Q16288 32-839): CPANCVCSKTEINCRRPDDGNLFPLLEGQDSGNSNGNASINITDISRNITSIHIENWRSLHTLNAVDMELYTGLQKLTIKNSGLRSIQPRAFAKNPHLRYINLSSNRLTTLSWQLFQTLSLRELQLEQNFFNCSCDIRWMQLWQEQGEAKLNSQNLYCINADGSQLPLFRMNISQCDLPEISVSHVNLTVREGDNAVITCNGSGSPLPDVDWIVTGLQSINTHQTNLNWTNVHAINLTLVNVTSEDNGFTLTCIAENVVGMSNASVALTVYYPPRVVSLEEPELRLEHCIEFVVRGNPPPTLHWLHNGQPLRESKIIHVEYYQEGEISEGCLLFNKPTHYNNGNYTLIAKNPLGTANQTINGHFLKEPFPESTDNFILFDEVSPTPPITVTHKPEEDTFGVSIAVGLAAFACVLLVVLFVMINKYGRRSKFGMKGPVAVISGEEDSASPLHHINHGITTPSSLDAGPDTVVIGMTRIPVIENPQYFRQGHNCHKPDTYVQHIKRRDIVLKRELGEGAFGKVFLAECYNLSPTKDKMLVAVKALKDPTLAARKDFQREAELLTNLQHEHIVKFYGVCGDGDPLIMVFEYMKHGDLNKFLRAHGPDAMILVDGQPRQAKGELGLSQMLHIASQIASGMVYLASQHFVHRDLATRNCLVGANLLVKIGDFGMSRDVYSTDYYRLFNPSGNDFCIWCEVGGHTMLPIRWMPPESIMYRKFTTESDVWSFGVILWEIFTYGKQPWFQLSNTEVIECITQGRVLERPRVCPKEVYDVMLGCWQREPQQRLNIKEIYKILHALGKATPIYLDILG
As to conditions: TRKC; 1 μM; read-out: % control.

The target in assay [6] is T6, panel of 468 kinases (Homo sapiens, UniProt Q86Z02).
T6 construct: purchased KINOMEscan (ScanMAX) service
T6 sequence (Q86Z02 whole entry): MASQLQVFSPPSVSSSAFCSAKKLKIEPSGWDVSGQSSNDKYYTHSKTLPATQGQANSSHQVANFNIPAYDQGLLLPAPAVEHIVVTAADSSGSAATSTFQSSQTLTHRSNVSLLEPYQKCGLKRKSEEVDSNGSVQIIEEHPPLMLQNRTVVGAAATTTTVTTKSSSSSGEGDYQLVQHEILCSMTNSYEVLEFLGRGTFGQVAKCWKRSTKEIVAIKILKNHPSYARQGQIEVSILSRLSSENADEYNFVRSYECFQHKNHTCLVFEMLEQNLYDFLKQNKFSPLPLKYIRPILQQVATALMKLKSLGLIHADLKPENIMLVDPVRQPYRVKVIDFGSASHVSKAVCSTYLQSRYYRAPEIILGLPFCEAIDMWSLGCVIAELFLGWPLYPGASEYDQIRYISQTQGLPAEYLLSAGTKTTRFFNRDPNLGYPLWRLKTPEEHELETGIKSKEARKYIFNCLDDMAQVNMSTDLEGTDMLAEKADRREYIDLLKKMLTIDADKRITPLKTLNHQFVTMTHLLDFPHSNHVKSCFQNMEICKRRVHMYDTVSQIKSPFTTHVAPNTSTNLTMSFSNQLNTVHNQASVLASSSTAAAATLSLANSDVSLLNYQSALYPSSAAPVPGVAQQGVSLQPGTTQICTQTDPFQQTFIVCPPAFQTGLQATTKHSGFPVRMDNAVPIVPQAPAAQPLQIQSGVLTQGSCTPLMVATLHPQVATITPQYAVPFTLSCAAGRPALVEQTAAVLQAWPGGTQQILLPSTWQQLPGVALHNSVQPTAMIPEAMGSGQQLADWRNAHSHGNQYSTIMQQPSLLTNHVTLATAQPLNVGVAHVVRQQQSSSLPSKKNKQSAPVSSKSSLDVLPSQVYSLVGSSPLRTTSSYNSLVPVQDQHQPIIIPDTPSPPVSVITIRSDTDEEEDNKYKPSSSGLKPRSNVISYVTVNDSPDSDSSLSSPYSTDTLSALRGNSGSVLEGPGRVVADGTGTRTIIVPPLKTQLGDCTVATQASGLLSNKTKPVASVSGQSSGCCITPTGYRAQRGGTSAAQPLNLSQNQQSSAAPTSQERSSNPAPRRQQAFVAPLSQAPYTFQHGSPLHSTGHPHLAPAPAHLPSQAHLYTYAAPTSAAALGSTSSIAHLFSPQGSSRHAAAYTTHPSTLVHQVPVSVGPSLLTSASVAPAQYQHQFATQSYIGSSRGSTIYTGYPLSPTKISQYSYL
Particulars: HIPK1; 1 μM; read-out: % control.

T1 sequence (O00750 whole entry): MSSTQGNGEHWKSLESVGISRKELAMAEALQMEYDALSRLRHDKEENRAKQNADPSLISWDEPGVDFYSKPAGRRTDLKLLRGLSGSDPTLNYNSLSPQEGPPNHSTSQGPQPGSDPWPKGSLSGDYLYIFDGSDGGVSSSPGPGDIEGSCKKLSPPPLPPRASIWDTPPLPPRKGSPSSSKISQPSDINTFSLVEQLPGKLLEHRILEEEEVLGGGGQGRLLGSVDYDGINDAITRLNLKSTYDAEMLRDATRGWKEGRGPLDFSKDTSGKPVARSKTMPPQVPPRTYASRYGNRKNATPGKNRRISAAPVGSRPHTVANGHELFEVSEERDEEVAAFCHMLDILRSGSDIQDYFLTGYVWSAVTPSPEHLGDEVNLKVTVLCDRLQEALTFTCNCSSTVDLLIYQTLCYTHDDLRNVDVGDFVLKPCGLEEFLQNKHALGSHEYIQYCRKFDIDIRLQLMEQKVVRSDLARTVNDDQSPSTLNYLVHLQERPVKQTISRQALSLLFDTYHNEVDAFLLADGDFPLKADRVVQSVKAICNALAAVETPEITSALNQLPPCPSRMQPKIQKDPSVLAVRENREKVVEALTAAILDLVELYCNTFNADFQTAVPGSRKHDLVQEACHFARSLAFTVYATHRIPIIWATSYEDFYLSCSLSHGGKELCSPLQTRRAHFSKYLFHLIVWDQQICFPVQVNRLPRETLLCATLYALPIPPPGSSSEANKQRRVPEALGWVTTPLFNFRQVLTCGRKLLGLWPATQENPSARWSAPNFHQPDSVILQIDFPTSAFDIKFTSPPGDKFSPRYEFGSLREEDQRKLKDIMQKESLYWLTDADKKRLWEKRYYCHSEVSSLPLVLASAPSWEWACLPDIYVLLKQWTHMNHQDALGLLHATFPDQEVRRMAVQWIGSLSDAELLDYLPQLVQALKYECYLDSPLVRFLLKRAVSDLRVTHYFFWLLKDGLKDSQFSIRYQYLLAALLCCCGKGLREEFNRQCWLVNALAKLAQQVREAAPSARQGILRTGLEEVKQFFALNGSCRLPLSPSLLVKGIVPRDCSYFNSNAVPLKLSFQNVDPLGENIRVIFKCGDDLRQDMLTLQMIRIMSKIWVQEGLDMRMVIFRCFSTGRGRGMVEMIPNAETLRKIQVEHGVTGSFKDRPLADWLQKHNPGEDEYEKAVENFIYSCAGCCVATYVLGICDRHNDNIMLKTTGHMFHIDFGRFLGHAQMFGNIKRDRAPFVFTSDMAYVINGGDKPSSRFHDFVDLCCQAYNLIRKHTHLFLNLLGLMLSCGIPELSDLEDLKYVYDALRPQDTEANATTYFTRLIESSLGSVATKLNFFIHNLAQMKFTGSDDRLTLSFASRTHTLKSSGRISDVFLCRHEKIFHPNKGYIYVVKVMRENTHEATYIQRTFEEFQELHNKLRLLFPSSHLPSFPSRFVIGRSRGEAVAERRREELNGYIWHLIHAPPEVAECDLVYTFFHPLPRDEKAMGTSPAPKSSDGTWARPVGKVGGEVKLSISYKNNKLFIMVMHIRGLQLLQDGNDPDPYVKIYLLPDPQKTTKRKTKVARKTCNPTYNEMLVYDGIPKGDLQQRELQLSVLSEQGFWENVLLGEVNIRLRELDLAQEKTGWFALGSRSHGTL
T4 sequence (P78368 whole entry): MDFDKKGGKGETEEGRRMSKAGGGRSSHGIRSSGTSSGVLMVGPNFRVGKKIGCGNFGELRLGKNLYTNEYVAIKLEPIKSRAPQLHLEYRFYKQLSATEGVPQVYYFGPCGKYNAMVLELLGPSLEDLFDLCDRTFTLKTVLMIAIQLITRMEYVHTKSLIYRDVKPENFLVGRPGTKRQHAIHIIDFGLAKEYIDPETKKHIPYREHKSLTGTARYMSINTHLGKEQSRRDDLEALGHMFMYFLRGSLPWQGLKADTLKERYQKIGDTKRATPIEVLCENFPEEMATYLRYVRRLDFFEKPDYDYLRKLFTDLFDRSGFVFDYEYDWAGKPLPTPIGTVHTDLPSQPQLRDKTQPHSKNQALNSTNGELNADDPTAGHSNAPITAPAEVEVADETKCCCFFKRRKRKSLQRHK

`CNc1nc(Nc2ccc(C(=O)N3CCC(N4CCOCC4)CC3)c3c2OCO3)nc2[nH]cc(Cl)c12` [Compound 75, (7-((5-chloro-4-(methylamino)-7H-pyrrolo[2,3-d]pyrimidin-2-yl)amino)benzo[d][1,3]dioxol-4-yl)(4-morpholinopiperidin-1-yl)methanone]: the remaining binding at 1 µM came to 100% on panel of 468 kinases [1]; 100% at panel of 468 kinases [2]; 97% on panel of 468 kinases [3]; 2.9% on panel of 468 kinases [4]; 100% on panel of 468 kinases [5]; 23% on panel of 468 kinases [6].

Turning to `CNc1nc(Nc2ccc(P3(=O)CCN(C4CCOCC4)CC3)cc2OC)nc2[nH]cc(Cl)c12` [Compound 77, 4-(4-((5-chloro-4-(methylamino)-7H-pyrrolo[2,3-d]pyrimidin-2-yl)amino)-3-methoxyphenyl)-1-(tetrahydro-2H-pyran-4-yl)-1,4-azaphosphinane 4-oxide], the remaining binding at 1 µM was determined as 96% on panel of 468 kinases [1]; 100% at panel of 468 kinases [2]; 99% at panel of 468 kinases [3]; 96% at panel of 468 kinases [4]; 100% at panel of 468 kinases [5]; 32% on panel of 468 kinases [6].

Consider `CNc1nc(Nc2ccc(S(=O)(=O)N3CCC(N4CCOCC4)CC3)cc2OC)nc2[nH]cc(Cl)c12` [Compound 12, 5-chloro-N2-(2-methoxy-4-((4-morpholinopiperidin-1-yl)sulfonyl)phenyl)-N4-methyl-7H-pyrrolo[2,3-d]pyrimidine-2,4-diamine], for which the remaining binding at 1 µM was 100% on panel of 468 kinases [1]; 100% at panel of 468 kinases [2]; 97% on panel of 468 kinases [3]; 63% on panel of 468 kinases [4]; 100% at panel of 468 kinases [5]; 48% at panel of 468 kinases [6].
